Results: US20250243186A1, “PIPERIDINYL INDOLE DERIVATIVES, PREPARATION METHODS AND MEDICINAL USES THEREOF” (HANSOH BIO LLC, priority 2021, published 2025)
Where two headings read alike, the source gives them in different places. One block for each molecule: values may come before it.

What was measured:
[1] = target: T1, Recombinant human Factor B catalytic domain (Homo sapiens (Human), UniProt P00751); test: biochemical
[2] = target: T1, Recombinant human Factor B catalytic domain; test: Factor B binding assay by TR-FRET; details: 10 nM his-tagged Factor B catalytic domain, 100 nM tracer, 1 h
[3] = target: T1, Recombinant human Factor B catalytic domain; test: Target residence time of Factor B inhibitors by surface plasmon resonance (SPR); details: for Residence time: 1/koff; for t1/2: binding half-life ln2/koff
[4] = Ocular pharmacokinetic studies in rats; type: in vivo, brown Norway rats; details: 2 mpk PO
Protocol: Three-month-old brown Norway rats were administered the Example compound via oral gavage as a suspension in 2 equiv 1 N HCl+30% PEG300+50% (20% Cremophor EL in water). Ocular tissues from both eyes and plasma were collected from rats per time point at 0.25, 0.5, 1, 6, and 24 h after administration. The ocular tissues collected were the retina and the posterior eye cup (RPE/choroid and posterior sclera). The tissues were diluted with phosphate buffered saline containing 10% acetonitrile and homogenized, centrifuged prior to analyses. The concentrations of the test article were measured in plasma and supernatants of ocular homogenates by HPLC-MS/MS in four individual retinas, four individual posterior eye cups, and two individual plasma samples at each time point. Chromatographic separation was carried out on Waters BEH C18 Column (2.1×50 mm, 1.7 μm) column (MAC-MOD Analytical, Chadds Ford, PA), using a gradient elution method with water and acetonitrile, both containing 0.025% formic acid—1 mM NH4OAc. Mass spectrometric measurements in positive electrospray ionization were directed at quantifying the mass transition with [M+H]^+ as the precursor ion on API6500, triple quadruple mass spectrometer (Sciex, Framingham, MA). The relevant pharmacokinetic parameters were estimated using noncompartmental methods using WinNonlin (Enterprise, version 8.2).

[5] = tested on: AP complement activation; test: In vivo assessment of mouse AP complement functional activity (LPS-induced plasma C3b/iC3b/C3c ELISA); design: species or system C57BL/6 mice; details: at 20 h, 20 mg/kg oral
Protocol: Female C57BL/6 mice were administered with Example 57 formulation (20 mg/kg in 0.5% (w/v) methyl cellulose, 0.5% (v/v) Tween 80) by oral gavage 20 h before the end of study. To activate complement pathway, lipopolysaccharide (LPS) from Salmonella typhimurium (Sigma) was injected i.p. (2.5 mg/kg) 7.5 h prior to the end of the study. Control mice were given i.p. injection of saline solution and dosed with vehicle by oral gavage. Plasma samples were collected from mice at the end of the study. AP complement activation was assessed by measuring plasma C3 cleavage products C3b/iC3b/C3c with ELISA using rat anti-mouse C3b/iC3b/C3c monoclonal antibody (clone 2/11, Hycult biotech, 0.1ug/well) and goat anti-Rat IgG (whole molecule)-Peroxidase (Sigma) diluted in TBST (TBS/0.05% Tween20).

[6] = tested on: alternative complement pathway (AP); test: Ex vivo assessment of plasma PD inhibition (AP MAC deposition ELISA in rat serum); design: species or system Sprague Dawley rats; details: 2 mg/kg oral
[7] = read-out: Factor B TR-FRET IC50

T1 sequence (P00751 470-764): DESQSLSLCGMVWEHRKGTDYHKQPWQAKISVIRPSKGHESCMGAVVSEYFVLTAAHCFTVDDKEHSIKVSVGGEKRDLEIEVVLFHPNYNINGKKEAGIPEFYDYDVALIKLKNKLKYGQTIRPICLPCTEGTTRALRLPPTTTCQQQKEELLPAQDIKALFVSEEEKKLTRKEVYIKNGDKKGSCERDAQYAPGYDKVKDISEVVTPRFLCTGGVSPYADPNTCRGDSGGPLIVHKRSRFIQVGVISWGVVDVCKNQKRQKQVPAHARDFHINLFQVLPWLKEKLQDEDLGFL

SMILES: COc1cc(C)c2[nH]ccc2c1CN1CCC2(CC1c1ccc(C(=O)O)cc1)CC2F (single isomer, unassigned) [27 (Isomer 1), 4-(1-fluoro-6-((5-methoxy-7-methyl-1H-indol-4-yl)methyl)-6-azaspiro[2.5]octan-5-yl)benzoic acid]
Kd [1]: 6.25 nM
IC50 ([2]; Factor B TR-FRET IC50 (nM)): 5 nM
Residence time [3]: 191.4 s
t1/2 [3]: 0.0367 h

SMILES: COc1cc(C)c2[nH]ccc2c1CN1CCC2(CC1c1ccc(C(=O)O)cc1)CC2F (single isomer, unassigned) [27 (Isomer 2), 4-(1-fluoro-6-((5-methoxy-7-methyl-1H-indol-4-yl)methyl)-6-azaspiro[2.5]octan-5-yl)benzoic acid]
Kd [1]: 4.25 nM
IC50 ([2]; Factor B TR-FRET IC50 (nM)): 5.3 nM
Residence time [3]: 308.9 s
t1/2 [3]: 0.0592 h

SMILES: COc1cc(C)c2[nH]ccc2c1CN1CCC2(C[C@H]1c1ccc(C(=O)O)cc1C)CC(F)(F)C2 [Example 57]
T½ [4]: 22.2 h
Plasma AUC0-last (nM · h) ([4]; plasma): 12,668 nM · h
Retina AUC0-last ([4]; retina): 0.7964 µM·h
inhibition in mouse in-vivo PD assay [5]: sustained inhibition
inhibition in rat ex-vivo PD assay ([6]; at 24 h): sustained inhibition
IC50 [2, 7]: < 2 nM
t1/2 [3]: 1.188 h

Kd [1]: 7.03 nM
IC50 ([2]; Factor B TR-FRET IC50 (nM)): 7.5 nM
Residence time [3]: 236.4 s
t1/2 [3]: 0.0453 h
SMILES: COc1cc(C)c2[nH]ccc2c1CN1CC2CC3(CC3)CC2C1c1ccc(C(=O)O)cc1 (single isomer, unassigned) [29 (Isomer 1), 4-(2-((5-methoxy-7-methyl-1H-indol-4-yl)methyl)hexahydro-1H-spiro[cyclopenta[c]pyrrole-5,1′-cyclopropan]-1-yl)benzoic acid]

SMILES: COc1cc(C)c2[nH]ccc2c1CN1CCC2(C[C@H]1c1ccc(-c3noc(=O)[nH]3)cc1)CC(F)(F)C2 (single isomer, unassigned) [47 (Isomer 1)]
Kd [1]: 0.53 nM
IC50 ([2]; Factor B TR-FRET IC50 (nM)): < 2 nM
Residence time [3]: 4130 s
t1/2 [3]: 0.795 h

SMILES: CCO[C@H]1CCN(Cc2c(OC)cc(C)c3[nH]ccc23)[C@H](c2ccc(C(=O)O)cc2)C1 [Iptacopan, reference compound]
inhibition at 2 mg/kg ([6]; Rattus norvegicus, rats, 24 h post dose, 50% serum, read-out: Serum PD inhibition (%) at 24 h (2 mpk)): -3%

IC50 ([2]; Factor B TR-FRET IC50 (nM)): 1410 nM
SMILES: COc1cc(C)c2[nH]ccc2c1CN1CCC2(CCC1c1ccc(C(=O)O)cc1)CC2(F)F (single isomer, unassigned) [24 (Isomer 1), 4-(1,1-difluoro-6-((5-methoxy-7-methyl-1H-indol-4-yl)methyl)-6-azaspiro[2.6]nonan-7-yl)benzoic acid]

SMILES: COc1cc(C)c2[nH]ccc2c1CN1CCC2(CC1c1ccc(C(=O)O)cc1)CC2(F)F (single isomer, unassigned) [8 (Isomer 1), 4-(1,1-difluoro-6-((5-methoxy-7-methyl-1H-indol-4-yl)methyl)-6-azaspiro[2.5]octan-5-yl)benzoic acid]
AUC(0-t) ([4]; Brown Norway, rat, 2 mg/kg, plasma, read-out: Plasma AUC0-last): 10.8 µM·h
AUC(0-t) ([4]; Brown Norway, rat, 2 mg/kg, retina, read-out: Retina AUC0-last): 2.23 µM·h
half-life ([4]; Brown Norway, rat, in vivo, 2 mg/kg, read-out: T½ (converted)): 6.4 h
IC50 ([2]; Factor B TR-FRET IC50 (nM)): 7 nM

SMILES: COc1cc(C)c2[nH]ccc2c1CN1CCC2(CC1c1ccc(C(=O)O)cc1)CC2(F)F (single isomer, unassigned) [8 (Isomer 2), 4-(1,1-difluoro-6-((5-methoxy-7-methyl-1H-indol-4-yl)methyl)-6-azaspiro[2.5]octan-5-yl)benzoic acid]
IC50 ([2]; Factor B TR-FRET IC50 (nM)): 245 nM

SMILES: Cc1cc(Br)c(CN2CCC3(C[C@H]2c2ccc(C(=O)O)cc2)CC(F)(F)C3)c2cc[nH]c12 (single isomer, unassigned) [78 (Isomer 1)]
IC50 [2, 7]: 7.4 nM

SMILES: Cc1cc(C)c2[nH]ccc2c1CN1CCC2(CCCO2)CC1c1ccc(C(=O)O)cc1 (single isomer, unassigned) [2 (Isomer 3), 4-(8-((5,7-dimethyl-1H-indol-4-yl)methyl)-1-oxa-8-azaspiro[4.5]decan-7-yl)benzoic acid]
IC50 ([2]; Factor B TR-FRET IC50 (nM)): 507 nM

IC50 ([2]; Factor B TR-FRET IC50 (nM)): 43.7 nM
SMILES: COc1cc(C)c2[nH]ccc2c1CN1CC2CC3(CC3)CC2C1c1ccc(C(=O)O)cc1 (single isomer, unassigned) [29 (Isomer 2), 4-(2-((5-methoxy-7-methyl-1H-indol-4-yl)methyl)hexahydro-1H-spiro[cyclopenta[c]pyrrole-5,1′-cyclopropan]-1-yl)benzoic acid]

SMILES: Cc1cc(C)c2[nH]ccc2c1CN1CC2(CCCCC2)C1c1ccc(C(=O)O)cc1 (stereo not drawn) [Example 16, 4-(2-((5,7-dimethyl-1H-indol-4-yl)methyl)-2-azaspiro[3.5]nonan-1-yl)benzoic acid]
IC50 ([2]; Factor B TR-FRET IC50 (nM)): 305 nM

SMILES: Cc1cc(C)c2[nH]ccc2c1CN1CCC(CCCO)=CC1c1ccc(C(=O)O)cc1 (single isomer, unassigned) [2 (Isomer 2), 4-(1-((5,7-dimethyl-1H-indol-4-yl)methyl)-4-(3-hydroxypropyl)-1,2,5,6-tetrahydropyridin-2-yl)benzoic acid]
IC50 ([2]; Factor B TR-FRET IC50 (nM)): 360 nM

IC50 [2, 7]: < 2 nM
t1/2 [3]: 1.214 h
SMILES: Cc1cc(C2CC2)c(CN2CCC3(C[C@H]2c2ccc(C(=O)O)cc2)CC(F)(F)C3)c2cc[nH]c12 [Example 53]

IC50 ([2]; Factor B TR-FRET IC50 (nM)): 180 nM
SMILES: COc1cc(C)c2[nH]ccc2c1CN1C[C@@H]2CC(C)(C)C[C@@H]2C1c1ccc(C(=O)O)cc1 (single isomer, unassigned) [34 (Isomer 2)]

IC50 ([2]; Factor B TR-FRET IC50 (nM)): 157 nM
SMILES: Cc1cc(C)c2[nH]ccc2c1CN1CCC(CF)CC1c1ccc(C(=O)O)cc1 (single isomer, unassigned) [7 (Isomer 2), 4-(1-((5,7-dimethyl-1H-indol-4-yl)methyl)-4-(fluoromethyl)piperidin-2-yl)benzoic acid]
